Type in all cases: cell-based
Assay [1] concerns the target T1, heteromeric KV7.2/KV7.3 channels (KCNQ2, KCNQ3) (Homo sapiens, UniProt O43525+O43526).
T1 construct: expressed in transfected cells; host or cells: CHO-K1
Put plainly: Automated patch-clamp (Sophion Qube 384) potency assay against KV7.2/KV7.3 channels. The settings on record: CHO-K1/Kv7.2/Kv7.3 cells; for EC50: EC50 from concentration-response of shift in Vhalf, 10 concentrations up to 30 μM, read-out: Kv7.2/7.3 EC50; for Kv7.2/7.3 ΔV1/2: maximal shift in the Vhalf from the top of the curve. In short, it runs like this:
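Activator potency: EC50 from 4-parameter logistic fit of mean Vhalf shift across ten 1-in-3 dilutions starting at 30 μM (n=4), with DMSO (typically 0.3%) control. Currents recorded by leak-subtracted whole-cell clamp of stable CHO-K1 KV7.2/KV7.3 cells, held at −80 mV, stepped −100 to +20 mV then 0 mV tails.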

The target in assay [2] is T2, homomeric KV7.4 channel (KCNQ4) (Homo sapiens, UniProt P56696).
T2 construct: host or cells: CHO-K1
Put plainly: Automated patch-clamp (Qube) counter-screening assay against KV7.4 channel. The settings on record: CHO-K1 cells expressing KV7.4; class by maximal shift in the Vhalf at 30 μM. Put shortly:
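EC50 and maximal shift in half-activation voltage come from 4-parameter logistic fits of mean Vhalf shifts. The series had ten 1-in-3 concentrations, highest 30 μM, each tested in quadruplicate. Recordings used automated Qube patch clamp on a stable CHO-K1 line expressing KCNQ4, and selectivity was judged from the 30 μM Vhalf shift.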
In general terms: Patch clamp records ionic current or voltage across a cell membrane.

In assay [3] the target is T3, heteromeric KV7.3/KV7.5 channel (KCNQ3, KCNQ5) (Homo sapiens, UniProt O43525+Q9NR82).
T3 construct: host or cells: HEK293
As to the kind of experiment: Automated patch-clamp counter-screening against KV7.3/KV7.5 channel. Conditions: HEK293 cells expressing Kv7.3/KV7.5; class by maximal shift in the Vhalf at 30 μM. In short, it runs like this: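 Potency came from a 4-parameter logistic fit of mean voltage-of-half-activation shifts, yielding EC50 and maximal shift; selectivity was judged on the shift at 30 μM. Compounds were applied at ten 3-fold dilutions from 30 μM in quadruplicate to HEK293 cells stably carrying Kv7.3 with tet-inducible Kv7.5.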

From patent publication US20260207563A1, “UREA COMPOUNDS AS ACTIVATORS OF POTASSIUM CHANNELS KV7.2/7.3 USEFUL IN THE TREATMENT OF CNS AND PNS DISORDERS” (ANGELINI PHARMA S.P.A., priority 2022, published 2026) come the findings set out here.

In the case of `N#Cc1cccc2c1CC[C@@H]2NC(=O)NCc1ccnc(OCC(F)(F)F)c1` [Compound 160], in assay [1], the EC50 was found to be 3.18 µM and the “Kv7.2/7.3 ΔV1/2” value was 25.41 mV. Moreover, in assay [2], the Kv7.4 selectivity criteria result is on record as “A (Selective compounds showed Kv7.4 and/or Kv7.3/7.5 ΔV1/2 equal to or lower than 15 mV (letter A in table 3))”. Moreover, the Kv7.3/7.5 selectivity criteria entry in assay [3] was “A (Selective compounds showed Kv7.4 and/or Kv7.3/7.5 ΔV1/2 equal to or lower than 15 mV (letter A in table 3))”.
In the case of `C#CCOc1cc(CNC(=O)NCC2CCC(F)(F)CC2)ccn1` [Compound 161], in assay [1], the EC50 is 7 µM and the “Kv7.2/7.3 ΔV1/2” value came to 26.66 mV. In addition, in assay [2], the Kv7.4 selectivity criteria result was “A (Selective compounds showed Kv7.4 and/or Kv7.3/7.5 ΔV1/2 equal to or lower than 15 mV (letter A in table 3))”. For the same compound, the Kv7.3/7.5 selectivity criteria entry in assay [3] is given as “A (Selective compounds showed Kv7.4 and/or Kv7.3/7.5 ΔV1/2 equal to or lower than 15 mV (letter A in table 3))”.
With `O=C(NCc1ccnc(OCC(F)(F)F)c1)N[C@@H]1CCc2ccc(C(F)(F)F)cc21` [Compound 162], in assay [1], the EC50 is 0.926 µM and the “Kv7.2/7.3 ΔV1/2” value turned out to be 18.2 mV. Moreover, the Kv7.4 selectivity criteria result in assay [2] is “B (Non-selective compounds showed Kv7.4 and/or Kv7.3/7.5 ΔV1/2 higher than 15 mV (letter B in table 3))”. The Kv7.3/7.5 selectivity criteria result in assay [3] is on record as “A (Selective compounds showed Kv7.4 and/or Kv7.3/7.5 ΔV1/2 equal to or lower than 15 mV (letter A in table 3))”.
For the compound `O=C(NCc1ccnc(OCC(F)(F)F)c1)N[C@H]1CCc2ccc(C(F)(F)F)cc21` [Compound 163], in assay [1], the EC50 is 1.07 µM and the “Kv7.2/7.3 ΔV1/2” value amounted to 27.41 mV. Further, in assay [2], the Kv7.4 selectivity criteria entry was “A (Selective compounds showed Kv7.4 and/or Kv7.3/7.5 ΔV1/2 equal to or lower than 15 mV (letter A in table 3))”. The Kv7.3/7.5 selectivity criteria result in assay [3] is “A (Selective compounds showed Kv7.4 and/or Kv7.3/7.5 ΔV1/2 equal to or lower than 15 mV (letter A in table 3))”.
Take `COc1cc2c(cc1F)CC[C@H]2NC(=O)NCc1ccnc(OCC(F)(F)F)c1` [Compound 164]: in assay [1], the EC50 turned out to be 1.24 µM and the “Kv7.2/7.3 ΔV1/2” value is 25.3 mV. In assay [2], the Kv7.4 selectivity criteria entry is listed as “A (Selective compounds showed Kv7.4 and/or Kv7.3/7.5 ΔV1/2 equal to or lower than 15 mV (letter A in table 3))”. Besides, the Kv7.3/7.5 selectivity criteria result in assay [3] is reported as “A (Selective compounds showed Kv7.4 and/or Kv7.3/7.5 ΔV1/2 equal to or lower than 15 mV (letter A in table 3))”.
Take `O=C(NCc1ccnc(OCC(F)(F)F)c1)N[C@@H]1COc2ccc(F)cc21` [Compound 165]: in assay [1], the EC50 worked out at 2.66 µM and the “Kv7.2/7.3 ΔV1/2” value is on record as 28.4 mV. For the same compound, in assay [2], the Kv7.4 selectivity criteria entry is recorded as “A (Selective compounds showed Kv7.4 and/or Kv7.3/7.5 ΔV1/2 equal to or lower than 15 mV (letter A in table 3))”. In assay [3], the Kv7.3/7.5 selectivity criteria entry was “A (Selective compounds showed Kv7.4 and/or Kv7.3/7.5 ΔV1/2 equal to or lower than 15 mV (letter A in table 3))”.
Regarding `COc1ccc2c(c1)OC[C@H]2NC(=O)NCc1ccnc(OCC(F)(F)F)c1` [Compound 166], in assay [1], the EC50 is 8.43 µM and the “Kv7.2/7.3 ΔV1/2” value is 52.09 mV. In assay [2], the Kv7.4 selectivity criteria result is on record as “A (Selective compounds showed Kv7.4 and/or Kv7.3/7.5 ΔV1/2 equal to or lower than 15 mV (letter A in table 3))”. Moreover, the Kv7.3/7.5 selectivity criteria result in assay [3] is on record as “A (Selective compounds showed Kv7.4 and/or Kv7.3/7.5 ΔV1/2 equal to or lower than 15 mV (letter A in table 3))”.
